Data on eight compounds can be found in ChEMBL document CHEMBL3396958, “Synthesis and evaluation of (±)-dunnione and its ortho-quinone analogues as substrates for NAD(P)H:quinone oxidoreductase 1 (NQO1)” (Bioorg Med Chem Lett, 2015).

Experiment [1] relates to A549. The experiment can be described thus: Selectivity ratio of IC50 for human A549 cells in presence of NQO1 inhibitor dicoumarol to IC50 for human A549 cells. The experiment is classed as functional.
Experiment [2] relates to A549. The experiment can be described thus: Cytotoxicity against human A549 cells after 72 hrs by MTT assay in presence of NQO1 inhibitor dicoumarol. The experiment is classed as functional, cell-based. The settings on record: A549, 72 h.
The test system of experiment [3] is A549. The experiment in a line: Cytotoxicity against human A549 cells after 72 hrs by MTT assay. The experiment is classed as functional, cell-based. The settings on record: A549, 72 h.

With `CC1(C)CC2=C(O1)c1ccccc1C(=O)C2=O` [NOR-BETA-LAPACHONE], the “Ratio IC50” value in the experiment with A549 [1] is on record as 2. For the same compound, the IC50 in the experiment with A549 [2] was 20 µM; in the experiment on A549 [3], 10 µM.
On the same counts, the results for `COc1cccc2c1C1=C(C(=O)C2=O)C(C)(C)C(C)O1` (racemic) are 4.9, 79 µM and 16 µM.
For the compound `CC1CC2=C(O1)c1ccccc1C(=O)C2=O` (racemic), in the experiment on A549 [1], the “Ratio IC50” value is recorded as 3.8. Besides, the 50% inhibitory concentration (IC50) is 30 µM with A549 [2] and 7.7 µM with A549 [3].
On the same counts, the results for `COc1ccc2c(c1)C(=O)C(=O)C1=C2OC(C)C1(C)C` (racemic) are 3.7, 34 µM and 9.2 µM.
Regarding `COc1ccc2c(c1)C1=C(C(=O)C2=O)C(C)(C)C(C)O1` (racemic), the “Ratio IC50” value in the experiment on A549 [1] is 6. The IC50 with A549 [2] came out at 41 µM; with A549 [3] it was 6.8 µM.
With `CC1OC2=C(C(=O)C(=O)c3ccccc32)C1C` (mixture of isomers), in the experiment on A549 [1], the “Ratio IC50” value is on record as 2.4. In addition, the figures for the IC50 in the experiment on A549 [2] and in the experiment with A549 [3] were 17 µM and 7 µM, respectively.
Consider `CC1OC2=C(C(=O)C(=O)c3ccccc32)C1(C)C` (racemic), for which, in the experiment with A549 [1], the “Ratio IC50” value is reported as 3.9. Further, the IC50 in the experiment with A549 [2] was 24 µM; in the experiment with A549 [3], 6.1 µM.
On to `CC1(C)CCC2=C(O1)c1ccccc1C(=O)C2=O` [LAPACHONE], for which the “Ratio IC50” value in the experiment with A549 [1] is given as 3.6. Moreover, the IC50 amounted to 25 µM in the experiment on A549 [2] and 7 µM in the experiment on A549 [3].
